pIC50: −log10 of the molar value.
Tests used:
CDK4/Cyclin D1 = CDK4/Cyclin D1 (Homo sapiens (Human), UniProt P11802); assay: CDK4/CyclinD1 enzymatic activity assay (TR-FRET); format: biochemical; settings: ATP 2 mM, read-out: CDK4_D1 IC50
Description: CDK4/CyclinD1 Enzymatic Activity Assay
The inhibitory activity of compounds was evaluated in vitro using TR-FRET assay with white 384-well low volume microplate (Greiner Bio-One). CDK4/Cyclin D1 catalyzed phosphorylation of peptide in the presence and absence of compounds was measured. IC50 determination. Recombinant protein complex CDK4/Cyclin D1, expressed from insect cell, was purchased from ProQinase. Testing compounds were dissolved in DMSO at 0.1 mM and tested in 9-dose IC50 mode. The reaction mixture was prepared by mixing CDK4/CyclinD1 (1 nM final), ULight-4E-BP1 (100 nM final, Perkinelmer, TRF0128-D), and ATP (2 mM final) in assay buffer (20 mM of HEPES pH 7.4, 1 mM of EGTA, 0.05% BSA, 0.005% Tween 20, and 1 mM TCEP). The compound of interest in DMSO was added to each well in 3-fold serial dilution by dispenser (TECAN D300E). After 20 minutes preincubation at room temperature, MgCl2 (10 mM final) was added to initiate the reaction. Following a 60 minutes incubation at 37° C., the reaction was stopped by addition of 2 μL of quenching buffer consisting of Lance detection buffer (Perkinelmer CR97-100C), 2 nM LANCE Ultra Europium-anti-P-4E-BP1 (Perkinelmer, TRF0216-D), 10 mM EDTA, and incubate at room temperature for additional 60 minutes in dark. The reaction signal was measured by Envision multimode plate reader (PerkinElmer, 2102-0010). IC50 values were determined by fitting the data to the standard 4 parameters with Hill Slope using GraphPad Prism software.

[1] = test system: MCF7 adenocarcinoma cell line; assay: Cell proliferation studies in MCF7 cells (ATP-Lite, 10 days); format: cell-based; settings: Homo sapiens, 240 h, read-out: PROLIFERATION_CTG_MCF7 IC50
Description: Cell Proliferation Studies in MCF7 Cells
Cell proliferation studies were conducted in MCF7 adenocarcinoma cell line. Cells were maintained in DMEM (Coming, Catalog #: 10-013-CV) supplemented with 10% v/v FBS (Gibco, Catalog #: 26140-079), 1% v/v Penicillin Streptomycin (Gibco, Catalog #15140-122) Cells were seeded in 384-well plates at a density of 100 or 200 cells/well. Compounds dissolved in DMSO were plated in quadruplicate using a digital dispenser (D300E, Tecan) and tested on a 9-point 3-fold serial dilution. Cells were incubated for 10 days in a 37° C. active humidified incubator at 5% CO2. A media exchange and second compound addition were performed on day 5. Cell viability was measured using the ATP-Lite 1-Step Luminescence reagent (Perkin Elmer, Catalog #: 6016731) as per manufacturer's instructions. Luminescence signal was measured with a multimode plate reader (Envision 2105, Perkin Elmer). Raw data files were imported to Dotmatics Screening Ultra for IC50 analysis. Luminescence values were normalized to both background and DMSO controls to obtain a percentage of viable cells relative to DMSO vehicle control.

Chain of CDK4/Cyclin D1 (P11802 whole entry): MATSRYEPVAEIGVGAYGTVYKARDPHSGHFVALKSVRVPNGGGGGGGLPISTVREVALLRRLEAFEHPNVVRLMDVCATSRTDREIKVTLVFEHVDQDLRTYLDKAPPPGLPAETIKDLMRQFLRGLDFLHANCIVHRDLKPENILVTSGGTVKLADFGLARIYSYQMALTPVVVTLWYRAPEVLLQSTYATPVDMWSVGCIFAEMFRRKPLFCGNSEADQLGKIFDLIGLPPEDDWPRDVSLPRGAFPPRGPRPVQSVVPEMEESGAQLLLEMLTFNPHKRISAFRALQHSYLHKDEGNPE
Chain of CDK4/Cyclin D1 (P24385 whole entry partner): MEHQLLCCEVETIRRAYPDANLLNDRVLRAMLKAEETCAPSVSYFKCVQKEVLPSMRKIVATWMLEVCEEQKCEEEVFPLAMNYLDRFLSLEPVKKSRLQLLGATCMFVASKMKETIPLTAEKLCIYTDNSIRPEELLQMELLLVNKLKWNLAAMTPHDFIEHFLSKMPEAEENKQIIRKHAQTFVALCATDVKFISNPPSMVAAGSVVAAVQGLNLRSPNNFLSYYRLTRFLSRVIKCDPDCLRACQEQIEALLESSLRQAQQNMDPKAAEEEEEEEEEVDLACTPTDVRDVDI

Row | pIC50 (CDK4/Cyclin D1) | pIC50 [1] | Compound
1 | ≥ 7.70 | 6.70 to 7.70 | Cc1c(-c2nc(Nc3ccc(C4CCN(C)CC4)cn3)ncc2F)sc2c(C3CCCC3)ccnc12 [Example 26, 4-(7-Cyclopentyl-3-methylthieno[3,2-b]pyridin-2-yl)-5-fluoro-N-(5-(1-methylpiperidin-4-yl)pyridin-2-yl)pyrimidin-2-amine]
2 | 6.70 to 7.70 | 5.70 to 6.70 | CCN1CCN(Cc2ccc(Nc3ncc(F)c(-c4cc5nccc(C(C)(C)O)c5s4)n3)nc2)CC1 [Example 27, 2-[2-[2-[[5-[(4-Ethylpiperazin-1-yl)methyl]pyridin-2-yl]amino]-5-fluoropyrimidin-4-yl]thieno[3,2-b]pyridin-7-yl]propan-2-ol]
3 | 6.70 to 7.70 | 5.70 to 6.70 | Cc1c(-c2nc(Nc3ccc(N4CCN(C)CC4)cn3)ncc2F)sc2c(C3CCCC3)ccnc12 [Example 28, 4-(7-Cyclopentyl-3-methylthieno[3,2-b]pyridin-2-yl)-5-fluoro-N-(5-(4-methylpiperazin-1-yl)pyridin-2-yl)pyrimidin-2-amine]
4 | 6.70 to 7.70 | 6.70 to 7.70 | CCN1CCN(c2ccc(Nc3ncc(F)c(-c4cc5nccc(C(C)(O)C(F)(F)F)c5s4)n3)nc2)CC1 (stereo not drawn) [Example 29, 2-[2-[2-[[5-(4-Ethylpiperazin-1-yl)pyridin-2-yl]amino]-5-fluoropyrimidin-4-yl]thieno[3,2-b]pyridin-7-yl]-1,1,1-trifluoropropan-2-ol]
5 | 6.70 to 7.70 | 5.70 to 6.70 | CCN1CCN(c2ccc(Nc3ncc(F)c(-c4sc5c(C6CCCC6)ccnc5c4C)n3)nc2)CC1 [Example 31, 4-(7-Cyclopentyl-3-methylthieno[3,2-b]pyridin-2-yl)-N-(5-(4-ethylpiperazin-1-yl)pyridin-2-yl)-5-fluoropyrimidin-2-amine]
6 | ≥ 7.70 | 5.70 to 6.70 | Cc1c(-c2nc(Nc3ccc(N4CC5(CNC5)C4)cn3)ncc2F)sc2c(C3CCCC3)ccnc12 [Example 32, N-(5-(2,6-Diazaspiro[3.3]heptan-2-yl)pyridin-2-yl)-4-(7-cyclopentyl-3-methylthieno[3,2-b]pyridin-2-yl)-5-fluoropyrimidin-2-amine]
7 | ≥ 7.70 | 5.70 to 6.70 | CCN1CCN(Cc2ccc(Nc3ncc(F)c(-c4cc5nccc(C6CCCC6)c5s4)n3)nc2)CC1 [Example 33, 4-(7-Cyclopentylthieno[3,2-b]pyridin-2-yl)-N-[5-[(4-ethylpiperazin-1-yl)methyl]pyridin-2-yl]-5-fluoropyrimidin-2-amine]
8 | ≥ 7.70 | 6.70 to 7.70 | CN1CCC(c2ccc(Nc3ncc(F)c(-c4cc5nccc(C6CCCC6)c5s4)n3)nc2)CC1 [Example 34, 4-(7-Cyclopentylthieno[3,2-b]pyridin-2-yl)-5-fluoro-N-(5-(1-methylpiperidin-4-yl)pyridin-2-yl)pyrimidin-2-amine]
9 | 6.70 to 7.70 | 5.70 to 6.70 | Fc1cnc(Nc2ccc(N3CCNCC3)cn2)nc1-c1cc2nccc(C3CCCC3)c2s1 [Example 36, 4-(7-Cyclopentylthieno[3,2-b]pyridin-2-yl)-5-fluoro-N-(5-piperazin-1-ylpyridin-2-yl)pyrimidin-2-amine]
10 | 6.70 to 7.70 | 5.70 to 6.70 | CN1CCN(c2ccc(Nc3ncc(F)c(-c4cc5nccc(C6CCCC6)c5s4)n3)nc2)CC1 [Example 37, 4-(7-Cyclopentylthieno[3,2-b]pyridin-2-yl)-5-fluoro-N-[5-(4-methylpiperazin-1-yl)pyridin-2-yl]pyrimidin-2-amine]
11 | 6.70 to 7.70 | < 5.70 | Cc1c(-c2nc(Nc3ccc(N4CCOCC4)cn3)ncc2F)sc2c(C3CCCC3)ccnc12 [Example 38, 4-(7-Cyclopentyl-3-methylthieno[3,2-b]pyridin-2-yl)-5-fluoro-N-(5-morpholinopyridin-2-yl)pyrimidin-2-amine]
12 | 6.70 to 7.70 | 5.70 to 6.70 | COC1CCN(c2ccc(Nc3ncc(F)c(-c4cc5nccc(C6CCCC6)c5s4)n3)nc2)CC1 [Example 39, 4-(7-Cyclopentylthieno[3,2-b]pyridin-2-yl)-5-fluoro-N-[5-(4-methoxypiperidin-1-yl)pyridin-2-yl]pyrimidin-2-amine]
